The values that follow come from US9914731B2, “Pyrazolo[1,5-a]pyridine derivatives and methods of their use” (Ignyta, Inc., priority 2013, dated 2018).

The structures appear in SMILES notation.

The IC50 is the concentration needed to halve the response being measured.

The first assay deals with recombinant human baculovirus-expressed AXL (Homo sapiens (Human), UniProt P30530). Briefly: AXL kinase assay (HTRF KinEASE). Type of assay: biochemical. The settings on record: average of two or more determinations. (In general: TR-FRET usually uses a lanthanide donor and a delayed reading to cut background.)
`Cc1ccc(C(=O)Nc2ccc(Oc3cc(-c4cnco4)cn4nccc34)c(F)c2)c(=O)n1-c1ccc(F)cc1` [Example 51, 1-(4-Fluoro-phenyl)-6-methyl-2-oxo-1,2-dihydro-pyridine-3-carboxylic acid [3-fluoro-4-(6-oxazol-5-yl-pyrazolo[1,5-a]pyridin-4-yloxy)-phenyl]-amide]: the IC50 is below 10 nM.

The next assay concerns the target recombinant human baculovirus-expressed cMET (Homo sapiens (Human), UniProt P08581). As to the kind of experiment: c-MET kinase assay (HTRF KinEASE). It is filed as biochemical. As to conditions: average of two or more determinations; read-out: c-MET IC50.
For `Cc1ccc(C(=O)Nc2ccc(Oc3cc(-c4cnco4)cn4nccc34)c(F)c2)c(=O)n1-c1ccc(F)cc1` [Example 51, 1-(4-Fluoro-phenyl)-6-methyl-2-oxo-1,2-dihydro-pyridine-3-carboxylic acid [3-fluoro-4-(6-oxazol-5-yl-pyrazolo[1,5-a]pyridin-4-yloxy)-phenyl]-amide], the IC50 was below 10 nM. Same read-out and setting: for `CCCCCn1cc(C(=O)Nc2ccc(Oc3cc(-c4cn(C)cn4)cn4nccc34)c(F)c2)c(=O)n(-c2ccc(F)cc2)c1=O` [Example 123, 3-(4-Fluoro-phenyl)-2,4-dioxo-1-pentyl-1,2,3,4-tetrahydro-pyrimidine-5-carboxylic acid{3-fluoro-4-[6-(1-methyl-1H-imidazol-4-yl)-pyrazolo[1,5-a]pyridin-4-yloxy]-phenyl}-amide] the value was below 10 nM; for `CCn1cc(C(=O)Nc2ccc(Oc3cc(-c4cn(C)cn4)cn4nccc34)nc2)c(=O)n(-c2ccc(F)cc2)c1=O` [Example 115, 1-Ethyl-3-(4-fluoro-phenyl)-2,4-dioxo-1,2,3,4-tetrahydro-pyrimidine-5-carboxylic acid{6-[6-(1-methyl-1H-imidazol-4-yl)-pyrazolo[1,5-a]pyridin-4-yloxy]-pyridin-3-yl}-amide], below 10 nM. For the molecule `Cc1c(Nc2cc(Oc3ccc(NC(=O)c4cccn(-c5ccc(F)cc5)c4=O)cc3F)c3ccnn3c2)cnn1C` [Example 82, 1-(4-Fluoro-phenyl)-2-oxo-1,2-dihydro-pyridine-3-carboxylic acid{4-[6-(1,5-dimethyl-1H-pyrazol-4-ylamino)-pyrazolo[1,5-a]pyridin-4-yloxy]-3-fluoro-phenyl}-amide], the IC50 is below 10 nM. The same measure, in the same setting: to `O=C(Nc1ccc(Oc2cc(-c3cnsc3)cn3nccc23)c(F)c1)c1cccn(-c2ccc(F)cc2)c1=O` [Example 53, 1-(4-Fluoro-phenyl)-2-oxo-1,2-dihydro-pyridine-3-carboxylic acid[3-fluoro-4-(6-isothiazol-4-yl-pyrazolo[1,5-a]pyridin-4-yloxy)-phenyl]-amide] belongs below 10 nM; to `CCn1cc(C(=O)Nc2ccc(Oc3cc(-c4cnccn4)cn4nccc34)c(F)c2)c(=O)n(-c2ccc(F)cc2)c1=O` [Example 134, 1-Ethyl-3-(4-fluoro-phenyl)-2,4-dioxo-1,2,3,4-tetrahydro-pyrimidine-5-carboxylic acid[3-fluoro-4-(6-pyrazin-2-yl-pyrazolo[1,5-a]pyridin-4-yloxy)-phenyl]-amide], 10 to 100 nM; to `Cn1cc(-c2cc(Oc3ccc(NC(=O)C4(C(=O)Nc5ccc(F)cc5)CC4)cc3F)c3ccnn3c2)cn1` [Example 32, Cyclopropane-1,1-dicarboxylic acid {3-fluoro-4-[6-(1-methyl-1H-pyrazol-4-yl)-pyrazolo[1,5-a]pyridin-4-yloxy]-phenyl}-amide(4-fluoro-phenyl)-amide], below 10 nM.

Take `CC(C)n1cc(C(=O)Nc2ccc(Oc3cc(NS(C)(=O)=O)cn4nccc34)c(F)c2)c(=O)n(-c2ccc(F)cc2)c1=O` [Example 141, 3-(4-Fluoro-phenyl)-1-isopropyl-2,4-dioxo-1,2,3,4-tetrahydro-pyrimidine-5-carboxylic acid[3-fluoro-4-(6-methanesulfonylamino-pyrazolo[1,5-a]pyridin-4-yloxy)-phenyl]-amide]: the IC50 lay within 10 to 100 nM. The same measure, in the same setting: for `O=C(Nc1ccc(Oc2cc(C3CCOCC3)cn3nccc23)c(F)c1)c1cccn(-c2ccc(F)cc2)c1=O` [Example 47, 1-(4-Fluoro-phenyl)-2-oxo-1,2-dihydro-pyridine-3-carboxylic acid{3-fluoro-4-[6-(tetrahydro-pyran-4-yl)-pyrazolo[1,5-a]pyridin-4-yloxy]-phenyl}-amide] the value was below 10 nM; for `CC(C)n1nc(C(=O)Nc2ccc(Oc3cc(-c4cn(C)cn4)cn4nccc34)cn2)c(=O)n(-c2ccc(F)cc2)c1=O` [Example 131, 4-(4-Fluoro-phenyl)-2-isopropyl-3,5-dioxo-2,3,4,5-tetrahydro-1,2,4-triazine-6-carboxylic acid{5-[6-(1-methyl-1H-imidazol-4-yl)-pyrazolo[1,5-a]pyridin-4-yloxy]-pyridin-2-yl}-amide], below 10 nM. For `CC(C)n1cc(C(=O)Nc2ccc(Oc3cc(N4CCS(=O)(=O)CC4)cn4nccc34)c(F)c2)c(=O)n(-c2ccc(F)cc2)c1=O` [Example 74, 3-(4-Fluoro-phenyl)-1-isopropyl-2,4-dioxo-1,2,3,4-tetrahydro-pyrimidine-5-carboxylic acid{4-[6-(1,1-dioxo-thiomorpholin-4-yl)-pyrazolo[1,5-a]pyridin-4-yloxy]-3-fluoro-phenyl}-amide], the IC50 was below 10 nM.

`Cn1nccc1-c1cc(Oc2ccc(NC(=O)c3cccn(-c4ccc(F)cc4)c3=O)cc2F)c2ccnn2c1` [Example 41, 1-(4-Fluoro-phenyl)-2-oxo-1,2-dihydro-pyridine-3-carboxylic acid{3-fluoro-4-[6-(2-methyl-2H-pyrazol-3-yl)-pyrazolo[1,5-a]pyridine-4-yloxy]-phenyl}-amide]: the IC50 is below 10 nM. Take `CC(C)n1cc(C(=O)Nc2ccc(Oc3cc(N4CCC(F)(F)CC4)cn4nccc34)c(F)c2)c(=O)n(-c2ccc(F)cc2)c1=O` [Example 69, 3-(4-Fluoro-phenyl)-1-isopropyl-2,4-dioxo-1,2,3,4-tetrahydro-pyrimidine-5-carboxylic acid{4-[6-(4,4-difluoro-piperidin-1-yl)-pyrazolo[1,5-a]pyridin-4-yloxy]-3-fluoro-phenyl}-amide]: the IC50 was in the range of 10 to 100 nM. Regarding `COc1cc(Oc2ccc(NC(=O)c3cccn(-c4ccc(F)cc4)c3=O)cc2F)c2ccnn2c1` [Example 22, 1-(4-Fluoro-phenyl)-2-oxo-1,2-dihydro-pyridine-3-carboxylic acid [3-fluoro-4-(6-methoxy-pyrazolo[1,5-a]pyridin-4-yloxy)-phenyl]-amide], the IC50 lay within 101 to 1000 nM. For `Cc1ccc(C(=O)Nc2ccc(Oc3cc(N4CCOCC4)cn4nccc34)c(F)c2)c(=O)n1-c1ccc(F)cc1` [Example 60, 1-(4-Fluoro-phenyl)-6-methyl-2-oxo-1,2-dihydro-pyridine-3-carboxylic acid [3-fluoro-4-(6-morpholin-4-yl-pyrazolo[1,5-a]pyridin-4-yloxy)-phenyl]-amide], the IC50 was below 10 nM. Regarding `CC(C)n1cc(C(=O)Nc2ccc(Oc3cc(NC(=O)N4CCN(C)CC4)cn4nccc34)c(F)c2)c(=O)n(-c2ccc(F)cc2)c1=O` [Example 150, 3-(4-Fluoro-phenyl)-1-isopropyl-2,4-dioxo-1,2,3,4-tetrahydro-pyrimidine-5-carboxylic acid(3-fluoro-4-{6-[(4-methyl-piperazine-1-carbonyl)-amino]-pyrazolo[1,5-a]pyridin-4-yloxy}-phenyl)-amide], the IC50 fell in the range of 10 to 100 nM. Turning to `CCn1cc(C(=O)Nc2ccc(Oc3cc(N4CCOCC4)cn4nccc34)c(F)c2)c(=O)n(-c2ccc(F)cc2)c1=O` [Example 61, 1-Ethyl-3-(4-fluoro-phenyl)-2,4-dioxo-1,2,3,4-tetrahydro-pyrimidine-5-carboxylic acid[3-fluoro-4-(6-morpholin-4-yl-pyrazolo[1,5-a]pyridin-4-yloxy)-phenyl]-amide], the IC50 is below 10 nM. Consider `O=C(Nc1ccc(Oc2cccn3nccc23)cc1)c1cccn(-c2ccc(F)cc2)c1=O` [Example 1, 1-(4-Fluoro-phenyl)-2-oxo-1,2-dihydro-pyridine-3-carboxylic acid [4-(pyrazolo[1,5-a]pyridin-4-yloxy)-phenyl]-amide], for which the IC50 is below 10 nM.

Take `Cn1cnc(-c2cc(Oc3ccc(NC(=O)C4(C(=O)Nc5ccc(F)cc5)CC4)cc3F)c3ccnn3c2)c1` [Example 108, Cyclopropane-1,1-dicarboxylic acid{3-fluoro-4-[6-(1-methyl-1H-imidazol-4-yl)-pyrazolo[1,5-a]pyridin-4-yloxy]-phenyl}-amide(4-fluoro-phenyl)-amide]: the half-inhibitory concentration (IC50) is below 10 nM. Regarding `CCn1cc(C(=O)Nc2ccc(Oc3cc(-c4cn(C)cn4)cn4nccc34)c(C(F)(F)F)c2)c(=O)n(-c2ccc(F)cc2)c1=O` [Example 125, 1-Ethyl-3-(4-fluoro-phenyl)-2,4-dioxo-1,2,3,4-tetrahydro-pyrimidine-5-carboxylic acid {4-[6-(1-methyl-1H-imidazol-4-yl)-pyrazolo[1,5-a]pyridin-4-yloxy]-3-trifluoromethyl-phenyl}-amide], the IC50 is below 10 nM. On the same count and under the same terms, to `CN1CCN(c2cc(Oc3ccc(NC(=O)c4cccn(-c5ccc(F)cc5)c4=O)cc3F)c3ccnn3c2)CC1` [Example 38, 1-(4-Fluoro-phenyl)-2-oxo-1,2-dihydro-pyridine-3-carboxylic acid {3-fluoro-4-[6-(4-methyl-piperazin-1-yl)-pyrazolo[1,5-a]pyridin-4-yloxy]-phenyl}-amide] belongs below 10 nM; to `O=C(Nc1ccc(Oc2cc(Nc3ccccn3)cn3nccc23)c(F)c1)c1cccn(-c2ccc(F)cc2)c1=O` [Example 81, 1-(4-Fluoro-phenyl)-2-oxo-1,2-dihydro-pyridine-3-carboxylic acid{3-fluoro-4-[6-(pyridin-2-ylamino)-pyrazolo[1,5-a]pyridin-4-yloxy]-phenyl}-amide], below 10 nM; to `CCn1cc(C(=O)Nc2ccc(Oc3cc(NS(C)(=O)=O)cn4nccc34)c(F)c2)c(=O)n(-c2ccc(F)cc2)c1=O` [Example 140, 1-Ethyl-3-(4-fluoro-phenyl)-2,4-dioxo-1,2,3,4-tetrahydro-pyrimidine-5-carboxylic acid[3-fluoro-4-(6-methanesulfonylamino-pyrazolo[1,5-a]pyridin-4-yloxy)-phenyl]-amide], 10 to 100 nM. The same measure, in the same setting: for `CCOCCOc1ccn(-c2ccc(F)cc2)c(=O)c1C(=O)Nc1ccc(Oc2cccn3nccc23)c(F)c1` [Example 14, 4-(2-Ethoxy-ethoxy)-1-(4-fluoro-phenyl)-2-oxo-1,2-dihydro-pyridine-3-carboxylic acid [3-fluoro-4-(pyrazolo[1,5-a]pyridin-4-yloxy)-phenyl]-amide] the value was 10 to 100 nM.
